# According to patent US20090217394A1 (priority 2005, published 2009):
# Assays:
# [1] = system: SCID-Ins-TRECK-Tg mice; assay: Decrease in blood glucose level by administration of insulin to DT-induced hyperglycemic mice; format: in vivo, mouse
# [2] = target: human HB-EGF (L148S/P149T) (human) (UniProt Q99075); assay: cell-based or functional assay
# [3] = system: SCID-Ins-TRECK-Tg mouse; assay: Blood insulin level after DT in transgenic mouse; format: in vivo
# Source text: (§1) Moreover, the blood insulin level of an SCID-Ins-TRECK-Tg mouse was compared with that of a non-Tg mouse. When DT had not yet been administered, there had been no difference between them. […] However, the SCID-Ins-TRECK-Tg mouse was not able to secrete insulin, and thus the blood insulin level thereof was not changed (FIG. 5B) in it.
# [4] = system: non-Tg mouse; assay: Blood insulin level after DT in non-Tg mouse; format: in vivo
# Source text: as §1
# [5] = system: mouse cells; settings: toxin added from outside of the cells; cited from earlier work
# [6] = system: mouse; settings: dosage of 50 μg/kg
# [7] = system: non-transgenic mouse born of the same mother; assay: Blood glucose level after diphtheria toxin in non-transgenic littermate; format: in vivo
# [8] = system: islets of Langerhans in the pancreas of the transgenic mouse; assay: Histological analysis of transgenic mouse pancreas after diphtheria toxin; format: in vivo
# [9] = system: SCID-Ins-TRECK-Tg mice; assay: Blood glucose level after intraperitoneal diphtheria toxin in transgenic mice; format: in vivo, mouse
# [10] = 5th day after administration of DT
# [11] = after DT, 10 minutes after 2 g/kg oral glucose
# [12] = 7 days after 5 μg/kg diphtheria toxin, immunostaining
# [13] = diphtheria toxin 50 ng/kg to 50 μg/kg intraperitoneal, within two days
# UniProt Q99075, sequence (Q99075 63-148 L148S): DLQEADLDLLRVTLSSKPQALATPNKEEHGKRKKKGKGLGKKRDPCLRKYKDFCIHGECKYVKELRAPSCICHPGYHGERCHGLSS
substance,measurement,setting,value
NovoRapid injection: rapid-acting insulin analogue (NovoRapid injection; NovoNordisk Pharma),blood glucose level after insulin,"[1]; 1 U intraperitoneal, severe hyperglycemia (blood glucose >600 mg/dl)",decreased to a normal level
same,blood glucose level after insulin,"[1]; 100 mU insulin, mouse at 500 mg/dl or higher after 1 μg/kg DT (FIG. 5A)",rapidly decreased to a normal value
same,blood glucose level after insulin,"[1]; 100 mU intraperitoneal, 7 days after 1 μg/kg DT, mouse with blood glucose 500 mg/dl (FIG. 5C)",normalized
same,blood glucose level after insulin,"[1]; 100 mU intraperitoneal, severe hyperglycemia (blood glucose >600 mg/dl)",no changes
diphtheria toxin (from UniProt P00588 33-567),minimum DT amount necessary for inducing hyperglycemia,[2],50 ng/kg
diphtheria toxin,blood insulin level,[3]; [10],significantly decreased
same,blood insulin level after glucose load,[3]; [11],not changed
same,blood insulin level,[4]; [10],not changed
same,blood insulin level after glucose load,[4]; [11],rapidly increased
same,resistance of mouse cells to diphtheria toxin relative to human cells,[5],"≥ 1,000 times"
same,abnormality after administration,[6],no abnormality is observed
same,changes in blood glucose levels due to administration of the toxin,[7],no changes
same,insulin positive cells (β cells) in islets of Langerhans,[8]; [12],significantly decreased
same,number of α cells stained with anti-glucagon antibodies,[8]; [12],increased
same,cells in the islets of Langerhans (HE staining),[8]; 7 days after 40 μg/kg diphtheria toxin,damaged
same,time for which high blood glucose level was maintained,[9]; diphtheria toxin 50 ng/kg to 20 μg/kg intraperitoneal,≥ 50 days
same,blood glucose level from four days after administration,"[9]; diphtheria toxin 50 ng/kg to 20 μg/kg intraperitoneal, from four days after administration",≥ 400 mg/dL
same,blood glucose level two days after administration,"[9]; diphtheria toxin 50 ng/kg to 20 μg/kg intraperitoneal, two days after administration",≥ 200 mg/dL
same,blood glucose level within two days after administration,[9]; [13],≥ 200 mg/dL
same,glucose and ketone bodies in urine,[9]; [13],detection of glucose and ketone bodies in urine
same,duration of hyperglycemic state,"[9]; single DT administration, 5 ng/kg to 50 μg/kg intraperitoneal",≥ 2 months
same,minimum DT amount necessary for inducing hyperglycemia,[9]; single intraperitoneal administration,50 ng/kg
